This passage reports IC50 results from US20080051420A1, “New Compounds 317” (AstraZeneca AB, priority 2006, published 2008).

One may read the IC50 as the concentration needed to halve the response being measured.

T1 sequence (P56817 22-460): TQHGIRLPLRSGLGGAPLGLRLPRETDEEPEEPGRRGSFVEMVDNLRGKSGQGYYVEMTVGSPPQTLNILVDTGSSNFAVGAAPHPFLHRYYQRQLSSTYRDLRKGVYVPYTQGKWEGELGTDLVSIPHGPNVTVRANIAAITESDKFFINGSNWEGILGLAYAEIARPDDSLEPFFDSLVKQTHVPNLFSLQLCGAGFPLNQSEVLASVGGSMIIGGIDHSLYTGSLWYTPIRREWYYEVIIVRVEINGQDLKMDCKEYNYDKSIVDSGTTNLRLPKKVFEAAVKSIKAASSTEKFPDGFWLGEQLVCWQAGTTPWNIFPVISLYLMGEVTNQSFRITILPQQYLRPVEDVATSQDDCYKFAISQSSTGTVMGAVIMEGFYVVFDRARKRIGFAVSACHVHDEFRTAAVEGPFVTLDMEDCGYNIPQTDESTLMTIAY

One assay concerns the target T1, human β-secretase (Homo sapiens, UniProt P56817).
T1 construct: The soluble part of the human β-secretase (AA 1-AA 460) was cloned; made in house
Kind of assay: TR-FRET assay (β-secretase enzyme, sBACE-Fc).
Conditions: not given
It is filed as biochemical. As for the experimental part: The enzyme used in the IGEN Cleavage-, Fluorescent-, TR-FRET- and BiaCore assays is described as follows:
The soluble part of the human β-secretase (AA 1-AA 460) was cloned into the ASP2-F10-1-IRES-GFP-neoK mammalian expression vector. The gene was fused to the Fc domain of IgG1 (affinity tag) and stably cloned into HEK 293 cells. Purified sBACE-Fc is stored in Tris buffer, pH 9.2 and has a purity of 95%.
Enzyme was diluted to 6 μg/mL and the substrate (Europium)[…](Qsy7) to 200 nM in reaction buffer (NaAcetate, chaps, triton x-100, EDTA pH 4.5). Compounds were diluted to the desired concentration in dimethyl sulfoxide (final dimethyl sulfoxide concentration in assay is 5%). […] Enzyme (9 μL) and 1 μL of compound in dimethyl sulfoxide was added to the plate, mixed and pre-incubated for 10 min. Substrate (10 μL) was added and the reaction proceeded in the dark for 15 min at RT. The reaction was stopped with the addition of 7 μL NaAcetate, pH 9. […] The dimethyl sulfoxide control defined the 100% activity level and 0% activity was defined by exclusion of the enzyme (using reaction buffer instead).
(Time-resolved FRET reads energy transfer from a long-lived donor to a nearby acceptor.)
As to `COc1ccc(C2(c3cccc(-c4cc(OC)cc(OS(C)(=O)=O)c4)c3)N=C(N)N3CCN=C32)cc1` (stereo not drawn) [Example 73, 3′-[5-Amino-7-(4-methoxyphenyl)-2,7-dihydro-3H-imidazo[1,5-a]imidazol-7-yl]-5-methoxybiphenyl-3-yl methanesulfonate acetate], half-maximal inhibition (IC50) was put at 190 nM.

Staying with this assay, now noted: read-out: IC50 in TR-FRET assay.
Consider “4-[5-Amino-7-(3′,5′-dichlorobiphenyl-3-yl)-2,7-dihydro-3H-imidazo[1,5-a]imidazol-7-yl]phenyl methanesulfonate 0.25 acetate [Example 75]”, for which the IC50 worked out at 146 nM. On the same count and under the same terms, under `COc1cccc(-c2cccc(C3(c4ccc(OS(C)(=O)=O)cc4)N=C(N)N4CCCN=C43)c2)c1` (stereo not drawn) [Example 31, 4-[6-Amino-8-(3′-methoxybiphenyl-3-yl)-2,3,4,8-tetrahydroimidazo[1,5-a]pyrimidin-8-yl]phenyl methanesulfonate acetate] stands 156 nM; under `CS(=O)(=O)Oc1ccc(C2(c3cccc(-c4cnccn4)c3)N=C(N)N3CCCN=C32)cc1` (stereo not drawn) [Example 32, 4-[6-Amino-8-(3-pyrazin-2-ylphenyl)-2,3,4,8-tetrahydroimidazo[1,5-a]pyrimidin-8-yl]phenyl methanesulfonate acetate], 501 nM; under `CS(=O)(=O)Oc1ccc(C2(c3cccc(-c4cncc(F)c4)c3)N=C(N)N3CCCN=C32)cc1` (stereo not drawn) [Example 33, 4-{6-Amino-8-[3-(5-fluoropyridin-3-yl)phenyl]-2,3,4,8-tetrahydroimidazo[1,5-a]pyrimidin-8-yl}phenyl methanesulfonate acetate], 397 nM. The same measure, in the same setting: the value for `COc1cncc(-c2cccc(C3(c4ccc(OS(C)(=O)=O)cc4)N=C(N)N4CCCN=C43)c2)c1` (stereo not drawn) [Example 34, 4-{6-Amino-8-[3-(5-methoxypyridin-3-yl)phenyl]-2,3,4,8-tetrahydroimidazo[1,5-a]pyrimidin-8-yl}phenyl methanesulfonate acetate] was 161 nM; that for `CS(=O)(=O)Oc1ccc(C2(c3cccc(-c4cccc(OC(F)(F)F)c4)c3)N=C(N)N3CCCN=C32)cc1` (stereo not drawn) [Example 41, 4-{6-Amino-8-[3′-(trifluoromethoxy)biphenyl-3-yl]-2,3,4,8-tetrahydroimidazo[1,5-a]pyrimidin-8-yl}phenyl methanesulfonate 0.5 acetate] was 981 nM. For the molecule `CCOc1cccc(-c2cccc(C3(c4ccc(OS(C)(=O)=O)cc4)N=C(N)N4CCCN=C43)c2)c1` (stereo not drawn) [Example 44, 4-[6-Amino-8-(3′-ethoxybiphenyl-3-yl)-2,3,4,8-tetrahydroimidazo[1,5-a]pyrimidin-8-yl]phenyl methanesulfonate 0.5 acetate], the 50% inhibitory concentration (IC50) is 471 nM. The same measure, in the same setting: under `COc1ccc(C2(c3cccc(-c4cc(OC)cc(OS(C)(=O)=O)c4)c3)N=C(N)N3CCCN=C32)cc1` (stereo not drawn) [Example 52, 3′-[6-Amino-8-(4-methoxyphenyl)-2,3,4,8-tetrahydroimidazo[1,5-a]pyrimidin-8-yl]-5-methoxybiphenyl-3-yl methanesulfonate acetate] stands 43 nM; under `CCCS(=O)(=O)Oc1ccc(C2(c3cccc(-c4cnccn4)c3)N=C(N)N3CCCN=C32)cc1` (stereo not drawn) [Example 54, 4-[6-Amino-8-(3-pyrazin-2-ylphenyl)-2,3,4,8-tetrahydroimidazo[1,5-a]pyrimidin-8-yl]phenyl propane-1-sulfonate acetate], 347 nM; under `CCCS(=O)(=O)Oc1ccc(C2(c3cccc(-c4cccc(OC)c4)c3)N=C(N)N3CCCN=C32)cc1` (stereo not drawn) [Example 55, 4-[6-Amino-8-(3′-methoxybiphenyl-3-yl)-2,3,4,8-tetrahydroimidazo[1,5-a]pyrimidin-8-yl]phenyl propane-1-sulfonate 0.75 acetate], 139 nM.

As for `CCCS(=O)(=O)Oc1ccc(C2(c3cccc(-c4cccc(Cl)c4)c3)N=C(N)N3CCCN=C32)cc1` (stereo not drawn) [Example 57, 4-[6-Amino-8-(3′-chlorobiphenyl-3-yl)-2,3,4,8-tetrahydroimidazo[1,5-a]pyrimidin-8-yl]phenyl propane-1-sulfonate 0.75 acetate], the IC50 was found to be 71 nM. In the case of `CCCS(=O)(=O)Oc1ccc(C2(c3cccc(-c4cccnc4F)c3)N=C(N)N3CCCN=C32)cc1` (stereo not drawn) [Example 59, 4-{6-Amino-8-[3-(2-fluoropyridin-3-yl)phenyl]-2,3,4,8-tetrahydroimidazo[1,5-a]pyrimidin-8-yl}phenyl propane-1-sulfonate acetate], the IC50 is 221 nM. Same read-out and setting: under `CCCS(=O)(=O)Oc1ccc(C2(c3cccc(-c4cccc(C(F)(F)F)c4)c3)N=C(N)N3CCCN=C32)cc1` (stereo not drawn) [Example 60, 4-{6-Amino-8-[3′-(trifluoromethyl)biphenyl-3-yl]-2,3,4,8-tetrahydroimidazo[1,5-a]pyrimidin-8-yl}phenyl propane-1-sulfonate 0.5 acetate] stands 493 nM. In the case of `CCCS(=O)(=O)Oc1ccc(C2(c3cccc(-c4ccc(F)c(OC)c4)c3)N=C(N)N3CCCN=C32)cc1` (stereo not drawn) [Example 61, 4-[6-Amino-8-(4′-fluoro-3′-methoxybiphenyl-3-yl)-2,3,4,8-tetrahydroimidazo[1,5-a]pyrimidin-8-yl]phenyl propane-1-sulfonate 0.75 acetate], the IC50 came to 671 nM. `CCCS(=O)(=O)Oc1ccc(C2(c3cccc(-c4cccc(Cl)c4F)c3)N=C(N)N3CCCN=C32)cc1` (stereo not drawn) [Example 62, 4-[6-Amino-8-(3′-chloro-2′-fluorobiphenyl-3-yl)-2,3,4,8-tetrahydroimidazo[1,5-a]pyrimidin-8-yl]phenyl propane-1-sulfonate 0.75 acetate]: the IC50 turned out to be 254 nM. The same measure, in the same setting: the value for `CCCS(=O)(=O)Oc1ccc(C2(c3cccc(-c4cc(Cl)ccc4Cl)c3)N=C(N)N3CCCN=C32)cc1` (stereo not drawn) [Example 63, 4-[6-Amino-8-(2′,5′-dichlorobiphenyl-3-yl)-2,3,4,8-tetrahydroimidazo[1,5-a]pyrimidin-8-yl]phenyl propane-1-sulfonate 0.75 acetate] was 912 nM; that for `CCCS(=O)(=O)Oc1ccc(C2(c3cccc(-c4cncc(OC)c4)c3)N=C(N)N3CCCN=C32)cc1` (stereo not drawn) [Example 64, 4-{6-Amino-8-[3-(5-methoxypyridin-3-yl)phenyl]-2,3,4,8-tetrahydroimidazo[1,5-a]pyrimidin-8-yl}phenyl propane-1-sulfonate 0.75 acetate] was 96 nM. The same measure, in the same setting: the value for `COc1cccc(-c2cccc(C3(c4ccc(OS(=O)(=O)C5CC5)cc4)N=C(N)N4CCCN=C43)c2)c1` (stereo not drawn) [Example 65, 4-[6-Amino-8-(3′-methoxybiphenyl-3-yl)-2,3,4,8-tetrahydroimidazo[1,5-a]pyrimidin-8-yl]phenyl cyclopropane sulfonate 0.75 acetate] was 248 nM; that for `NC1=NC(c2ccc(OS(=O)(=O)C3CC3)cc2)(c2cccc(-c3cc(Cl)cc(Cl)c3)c2)C2=NCCCN12` (stereo not drawn) [Example 66, 4-[6-Amino-8-(3′,5′-dichlorobiphenyl-3-yl)-2,3,4,8-tetrahydroimidazo[1,5-a]pyrimidin-8-yl]phenyl cyclopropanesulfonate 0.75 acetate] was 66 nM. The same measure, in the same setting: the value for `NC1=NC(c2ccc(OS(=O)(=O)C3CC3)cc2)(c2cccc(-c3cccc(Cl)c3)c2)C2=NCCCN12` (stereo not drawn) [Example 67, 4-[6-Amino-8-(3′-chlorobiphenyl-3-yl)-2,3,4,8-tetrahydroimidazo[1,5-a]pyrimidin-8-yl]phenyl cyclopropane sulfonate 0.75 acetate] was 61 nM; that for `NC1=NC(c2ccc(OS(=O)(=O)C3CC3)cc2)(c2cccc(-c3cccnc3F)c2)C2=NCCCN12` (stereo not drawn) [Example 69, 4-{6-Amino-8-[3-(2-fluoropyridin-3-yl)phenyl]-2,3,4,8-tetrahydroimidazo[1,5-a]pyrimidin-8-yl}phenyl cyclopropane sulfonate 0.75 acetate] was 313 nM. On to `NC1=NC(c2ccc(OS(=O)(=O)C3CC3)cc2)(c2cccc(-c3cccc(C(F)(F)F)c3)c2)C2=NCCCN12` (stereo not drawn) [Example 70, 4-{6-Amino-8-[3′-(trifluoromethyl)biphenyl-3-yl]-2,3,4,8-tetrahydroimidazo[1,5-a]pyrimidin-8-yl}phenyl cyclopropane sulfonate 0.75 acetate], for which the IC50 worked out at 620 nM. As to `NC1=NC(c2ccc(OS(=O)(=O)C3CC3)cc2)(c2cccc(-c3cccc(Cl)c3F)c2)C2=NCCCN12` (stereo not drawn) [Example 71, 4-[6-Amino-8-(3′-chloro-2′-fluorobiphenyl-3-yl)-2,3,4,8-tetrahydroimidazo[1,5-a]pyrimidin-8-yl]phenyl cyclopropane sulfonate 0.75 acetate], the IC50 was 390 nM. Turning to `NC1=NC(c2ccc(OS(=O)(=O)C3CC3)cc2)(c2cccc(-c3cc(Cl)ccc3Cl)c2)C2=NCCCN12` (stereo not drawn) [Example 72, 4-[6-Amino-8-(2′,5′-dichlorobiphenyl-3-yl)-2,3,4,8-tetrahydroimidazo[1,5-a]pyrimidin-8-yl]phenyl cyclopropane sulfonate 0.5 acetate], the IC50 came to 644 nM. Take `COc1cccc(-c2cccc(C3(c4ccc(OS(C)(=O)=O)cc4)N=C(N)N4CCN=C43)c2)c1` (stereo not drawn) [Example 74, 4-[5-Amino-7-(3′-methoxybiphenyl-3-yl)-2,7-dihydro-3H-imidazo[1,5-a]imidazol-7-yl]phenyl methanesulfonate 0.25 acetate]: the IC50 amounted to 449 nM. Consider `CS(=O)(=O)Oc1ccc(C2(c3cccc(-c4cccc(Cl)c4)c3)N=C(N)N3CCN=C32)cc1` (stereo not drawn) [Example 76, 4-[5-Amino-7-(3′-chlorobiphenyl-3-yl)-2,7-dihydro-3H-imidazo[1,5-a]imidazol-7-yl]phenyl methanesulfonate 0.5 acetate], for which the IC50 turned out to be 226 nM.
